Several values for one entry are separate records, joined by “and”; a condition that tells them apart may be missing. Equal values may be shown once. Inconclusive results and toxic doses are left out. The calls were made as follows: active = survival T/C of 150% or more; inactive = T/C below 125% in these data.
Tested on: BDF1 mice, B16 melanoma ip, median survival T/C
Experiment: NCI In Vivo Anticancer Drug Screen. Data for tumor model B16 Melanoma (intraperitoneal) in B6D2F1 (BDF1) mice
Settings: endpoint: median survival time, higher = longer survival
In short: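 Transplantable tumor model; survival or tumor size measured; reported as T/C, treated over vehicle control.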

[1] = dose: 12.5 mg/kg/injection, schedule: Q01DX009 (ip), vehicle: saline
[2] = dose: 25.0 mg/kg/injection, schedule: Q01DX009 (ip), vehicle: saline
[3] = dose: 12.5 mg/kg/injection, schedule: Q01DX009 (ip), vehicle: Klucel (hydroxypropylcellulose) (HPC)
[4] = dose: 25.0 mg/kg/injection, schedule: Q01DX009 (ip), vehicle: Klucel (hydroxypropylcellulose) (HPC)
[5] = dose: 50.0 mg/kg/injection, schedule: Q01DX009 (ip), vehicle: Klucel (hydroxypropylcellulose) (HPC)
[6] = dose: 50.0 mg/kg/injection, schedule: Q01DX009 (ip), vehicle: saline
[7] = dose: 12.5 mg/kg/injection, schedule: Q04DX003 (ip), vehicle: Klucel (hydroxypropylcellulose) (HPC)
[8] = dose: 25.0 mg/kg/injection, schedule: Q04DX003 (ip), vehicle: Klucel (hydroxypropylcellulose) (HPC)
[9] = dose: 25.0 mg/kg/injection, schedule: Q01DX009 (ip), vehicle: saline with Tween-80
[10] = dose: 50.0 mg/kg/injection, schedule: Q01DX009 (ip), vehicle: saline with Tween-80
[11] = dose: 50.0 mg/kg/injection, schedule: Q04DX003 (ip), vehicle: saline with Tween-80
[12] = dose: 100.0 mg/kg/injection, schedule: Q01DX009 (ip), vehicle: saline with Tween-80
[13] = dose: 100.0 mg/kg/injection, schedule: Q04DX003 (ip), vehicle: saline with Tween-80
[14] = dose: 200.0 mg/kg/injection, schedule: Q01DX009 (ip), vehicle: saline with Tween-80
[15] = dose: 12.5 mg/kg/injection, schedule: Q01DX009 (ip), vehicle: saline with Tween-80
[16] = dose: 25.0 mg/kg/injection, schedule: Q04DX003 (ip), vehicle: saline with Tween-80
[17] = dose: 100.0 mg/kg/injection, schedule: Q01DX009 (ip), vehicle: Klucel (hydroxypropylcellulose) (HPC)
[18] = dose: 200.0 mg/kg/injection, schedule: Q01DX009 (ip), vehicle: Klucel (hydroxypropylcellulose) (HPC)
[19] = dose: 400.0 mg/kg/injection, schedule: Q01DX009 (ip), vehicle: Klucel (hydroxypropylcellulose) (HPC)
[20] = dose: 100.0 mg/kg/injection, schedule: Q01DX009 (ip), vehicle: saline
[21] = dose: 6.25 mg/kg/injection, schedule: Q01DX009 (ip), vehicle: saline with Tween-80

Measured: T/C

CCOc1cc(N2CCOCC2)c(OCC)cc1N
inactive: dose: 6.25 mg/kg/injection, schedule: Q01DX009 (ip), vehicle: saline 95 % of control | [1] 102 % of control | [2] 100 % of control

O=C(O)c1ccccc1C(=O)OC1CC2C=CC1C21CC1 (centres undefined)
inactive: [3] 96 % of control | [4] 96 % of control | [5] 93 % of control

COc1cc(O)c2c(c1)C(=O)c1cc3c(c(O)c1C2=O)C(O)C(OC)C(C)(O)C3=O (centres undefined)
inactive: [4] 95 % of control | [5] 88 % of control

Cc1cc2nc3ccc(=[N+](C)C)cc-3sc2cc1N
inactive: dose: 3.12 mg/kg/injection, schedule: Q01DX009 (ip), vehicle: saline 116 % of control | [1] 116 % of control | [2] 107 % of control | [6] 97 % of control

CN(C)C1CCCCC1
inactive: [3] 91 % of control | [7] 116 % of control | [8] 100 % of control | [5] 100 % of control | dose: 50.0 mg/kg/injection, schedule: Q04DX003 (ip), vehicle: Klucel (hydroxypropylcellulose) (HPC) 91 % of control

CSCCC(C)C
inactive: [9] 95 % of control | [10] 89 % of control | [11] 110 % of control | [12] 95 % of control | [13] 97 % of control

Cc1cccc(C)c1NC(=O)c1ccccc1C(=O)O
inactive: [12] 97 % of control | [14] 92 % of control | dose: 400.0 mg/kg/injection, schedule: Q01DX009 (ip), vehicle: saline with Tween-80 95 % of control

CCOc1ccnc(OCC)n1
inactive: [9] 96 % of control | [10] 101 % of control | [12] 99 % of control

CC(=O)OC(CC(O)(C(F)(F)F)C(F)(F)F)C(C)(C)C (centres undefined)
inactive: [15] 120 % of control | dose: 12.5 mg/kg/injection, schedule: Q04DX003 (ip), vehicle: saline with Tween-80 105 % of control | [9] 117 % of control | [16] 105 % of control | [10] 97 % of control | [11] 117 % of control

O=C(OCC(COC(=O)c1ccccc1)(COC(=O)c1ccccc1)COC(=O)c1ccccc1)c1ccccc1
inactive: [17] 111 % of control | [18] 102 % of control | [19] 92 % of control

C=C1C(=O)OC2C=C(C)CC3C=C(CCC=C(C)CCC12)C(=O)O3 (centres undefined)
inactive: dose: 4.0 mg/kg/injection, schedule: Q01DX009 (ip), vehicle: Klucel (hydroxypropylcellulose) (HPC) 90 % of control | dose: 8.0 mg/kg/injection, schedule: Q01DX009 (ip), vehicle: Klucel (hydroxypropylcellulose) (HPC) 105 % of control | dose: 16.0 mg/kg/injection, schedule: Q01DX009 (ip), vehicle: Klucel (hydroxypropylcellulose) (HPC) 116 % of control | dose: 32.0 mg/kg/injection, schedule: Q01DX009 (ip), vehicle: Klucel (hydroxypropylcellulose) (HPC) 101 % of control

NC(=S)c1ncn(C2OC(CO)C(O)C2O)c1N (centres undefined)
inactive: [1] 107 % of control | [2] 105 % of control | [6] 105 % of control | [20] 102 % of control | dose: 200.0 mg/kg/injection, schedule: Q01DX009 (ip), vehicle: saline 103 % of control | dose: 400.0 mg/kg/injection, schedule: Q01DX009 (ip), vehicle: saline 95 % of control

N#CCCc1ccc(O)cc1
inactive: dose: 50.0 mg/kg/injection, schedule: Q01DX009 (ip), vehicle: gum acacia 100 % of control | dose: 50.0 mg/kg/injection, schedule: Q04DX003 (ip), vehicle: gum acacia 100 % of control | dose: 100.0 mg/kg/injection, schedule: Q01DX009 (ip), vehicle: gum acacia 89 % of control | dose: 100.0 mg/kg/injection, schedule: Q04DX003 (ip), vehicle: gum acacia 106 % of control | dose: 200.0 mg/kg/injection, schedule: Q01DX009 (ip), vehicle: gum acacia 91 % of control | dose: 200.0 mg/kg/injection, schedule: Q04DX003 (ip), vehicle: gum acacia 95 % of control

N#CCc1c(Cl)ccc(Cl)c1Cl
inactive: dose: 6.25 mg/kg/injection, schedule: Q01DX009 (ip), vehicle: Klucel (hydroxypropylcellulose) (HPC) 104 % of control | [3] 99 % of control | [4] 95 % of control | [5] 107 % of control

CN1CCN(c2ccc(Cl)cc2)CC1
inactive: [4] 100 % of control | [5] 100 % of control

CC1=C2CC3CCC(C)C2(CC1)C3(C)C (centres undefined)
inactive: [16] 105 % of control | [11] 100 % of control | [13] 91 % of control

Cc1n[nH]c2ccc([N+](=O)[O-])cc2c1=O
inactive: [21] 97 % of control | [15] 90 % of control | [9] 95 % of control

COC(=O)[c-]1[c-][c-][c-][c-]1.COC(=O)[c-]1[c-][c-][c-][c-]1.[Fe]
inactive: dose: 18.0 mg/kg/injection, schedule: Q01DX009 (ip), vehicle: Klucel (hydroxypropylcellulose) (HPC) 95 % of control and 103 % of control | dose: 28.75 mg/kg/injection, schedule: Q01DX009 (ip), vehicle: Klucel (hydroxypropylcellulose) (HPC) 104 % of control and 106 % of control | dose: 33.75 mg/kg/injection, schedule: Q04DX003 (ip), vehicle: Klucel (hydroxypropylcellulose) (HPC) 114 % of control | dose: 45.0 mg/kg/injection, schedule: Q01DX009 (ip), vehicle: Klucel (hydroxypropylcellulose) (HPC) 103 % of control and 118 % of control | dose: 67.5 mg/kg/injection, schedule: Q04DX003 (ip), vehicle: Klucel (hydroxypropylcellulose) (HPC) 92 % of control

CCC(=O)NC1=C(N2CC2)C(=O)C(NC(=O)CC)=C(N2CC2)C1=O
inactive: dose: 0.5 mg/kg/injection, schedule: Q01DX009 (ip), vehicle: saline 107 % of control | dose: 1.0 mg/kg/injection, schedule: Q01DX009 (ip), vehicle: saline 107 % of control | dose: 2.0 mg/kg/injection, schedule: Q01DX009 (ip), vehicle: saline 113 % of control

CCCCNC(C)(C)C(SSSC(c1cccs1)C(C)(C)NCCCC)c1cccs1 (centres undefined)
inactive: [15] 96 % of control | [9] 86 % of control

COC(=O)/C(C#N)=N/O
inactive: dose: 9.37 mg/kg/injection, schedule: Q04DX003 (ip), vehicle: saline with Tween-80 95 % of control | dose: 18.75 mg/kg/injection, schedule: Q04DX003 (ip), vehicle: saline with Tween-80 110 % of control | dose: 37.5 mg/kg/injection, schedule: Q04DX003 (ip), vehicle: saline with Tween-80 100 % of control | [6] 107 % of control | dose: 75.0 mg/kg/injection, schedule: Q04DX003 (ip), vehicle: saline 91 % of control | [20] 92 % of control

Cc1ccc(NC(=O)c2ccccc2Cl)cc1
inactive: [12] 105 % of control | [14] 97 % of control

C[CH2][Ge]([CH2]C)[CH2]C.C[CH2][Ge]([CH2]C)[CH2]C.C[CH2][Ge]([CH2]C)[O][Ge]([CH2]C)[CH2]C
inactive: [21] 101 % of control | [15] 100 % of control | [9] 101 % of control | [10] 91 % of control | [12] 100 % of control

CCCCCCCCCOCCOCCOCCN
inactive: [7] 98 % of control | [8] 90 % of control

S=C1SCN(C2CCCCC2)CN1C1CCCCC1
inactive: dose: 100.0 mg/kg/injection, schedule: Q04DX003 (ip), vehicle: Klucel (hydroxypropylcellulose) (HPC) 93 % of control | dose: 200.0 mg/kg/injection, schedule: Q04DX003 (ip), vehicle: Klucel (hydroxypropylcellulose) (HPC) 90 % of control | dose: 400.0 mg/kg/injection, schedule: Q04DX003 (ip), vehicle: Klucel (hydroxypropylcellulose) (HPC) 86 % of control

COc1ccc(N2C(=O)CC(Sc3ccccc3N)C2=O)cc1 (centres undefined)
inactive: [4] 94 % of control | [5] 86 % of control | [17] 97 % of control

CCCCCCCC(=O)CCCC
inactive: [17] 106 % of control | [18] 106 % of control | [19] 94 % of control

Cc1ccc(CNc2ccc(C)cc2)cc1
inactive: [17] 100 % of control | [18] 100 % of control

O=C(CCCc1ccc(N(CCCl)CCCl)cc1)Nc1ncccn1
inactive: dose: 3.0 mg/kg/injection, schedule: Q01DX009 (ip), vehicle: Klucel (hydroxypropylcellulose) (HPC) 104 % of control | dose: 6.0 mg/kg/injection, schedule: Q01DX009 (ip), vehicle: Klucel (hydroxypropylcellulose) (HPC) 109 % of control | dose: 12.0 mg/kg/injection, schedule: Q01DX009 (ip), vehicle: Klucel (hydroxypropylcellulose) (HPC) 109 % of control

Reference: PubChem BioAssay AID192 (DTP/NCI, 2004)
